Target: T1, LRRK2 (Homo sapiens, UniProt Q5S007, G2019S)
T1 construct: purchased Invitrogen PV4882
Assay: In Vitro LRRK2 LabChip Assay (LRRK2 Ki)
Type: biochemical
Conditions: Table 5 compounds (formula I)
Protocol: In Vitro LRRK2 LabChip Assay
This assay was used to determine a compound's potency in inhibiting activity of LRRK2 by determining, Kiapp, IC50, or percent inhibition values. In a polypropylene plate, LRRK2, fluorescently-labeled peptide substrate, ATP and test compound were incubated together. Using a LabChip 3000 (Caliper Life Sciences), after the reaction the substrate was separated by capillary electrophoresis into two populations: phosphorylated and unphosphorylated. The relative amounts of each were quantitated by fluorescence intensity. LRRK2 Ki was determined according to the equation: Y=V0*(1−((x+Ki*(1+S/Km)+Et)/(2*Et)−(((x+Ki*(1+S/Km)+Et)^2−(4*Et*x))^0.5)/(2*Et))). Ki values in Table 4 and elsewhere herein are shown in μM.
Assay conditions and materials used were as follows:
LRRK2 Wild type in 5 mM MgCl2: 15 nM (Invitrogen lot #500607F)
Kinase reaction time: 2 hours
Wild type in 5 mM MgCl2: 80 μM
Solid Support: Black 50 μL volume polypropylene 384 well plate (MatriCal cat # MP101-1-PP)
Kinase: LRRK2 G2019S (Invitrogen cat #PV4882). • LRRK2 Wild type (Invitrogen cat #PV4874).
Substrate: 5FAM-[…]-CONH2
Non-binding plate: 384 well clear V-bottom polypropylene plates (Greiner cat #781280).
ATP: 10 mM ATP (Cell Signaling cat #9804).
Coating Reagent #3: Coating Reagent #3 (Caliper).
Complete Reaction Buffer: H2O/25 mM Tris, pH 8.0/5 mM MgCl2/2 mM DTT/0.01% Triton X-100.
Stop Solution: H2O/100 mM HEPES, pH 7.2/0.015% Brij-35/0.2% Coating Reagent #3/20 mM EDTA.
Separation Buffer: H2O/100 mM HEPES, pH 7.2/0.015% Brij-35/0.1% Coating Reagent #3/1:200 Coating Reagent #8/10 mM EDTA/5% DMSO.
Compound Plate Preparation:
For serial dilutions, 34.6 μl DMSO was added to columns 3-24. For the assay controls, 37.5 μl DMSO was added to columns 1 and 2 of rows A and P. a, d and 50 μl 25 μM G-028831 (Staurosporine) was added to columns 1 and 2, row B. For the samples: to start at 100 μM, 37.5 μl DMSO was to columns 1 and 2, then 12.5 μl 10 mM compound; to start at 10 μM, 78 μl DMSO was added to columns 1 & 2, then 2 μl 10 mM compound; and to start at 1 μM, 25 μM compound (2 μl 10 mM cmpd+798 μl DMSO) was added to empty columns 1 and 2. A Precision instrument was used to perform 1:3.16 serial dilutions (“PLK_BM_serial_halflog”).
ATP was diluted to 282.1 μM in Complete Kinase Buffer (final concentration was 130 μM).
Total and Blank Preparation:
In Complete Reaction Buffer, substrate was diluted to 4 μM. Equal volumes of Complete Reaction Buffer and 4 μM substrate were combined to obtain the blank. Equal volumes of Complete Reaction Buffer and 4 μM substrate were combined and to the combined solution was added 2× final LRRK2 concentration.
To a 50 μl polypropylene plate, 5 μl/well buffer/substrate was added by hand to Blank wells. A Biomek FX was used to start the kinase reaction (“PLK SAR 23 ATP”). The following were added to the appropriate wells:
5 μl/well compound/ATP in Assay Plate;
5 μl/well kinase/substrate in Assay Plate;
The plate was incubated for 2 hours in the dark. Biomek FX was used to stop the kinase reaction (“PLK Stop”), and 10 μl/well Stop solution was added to the Assay Plate. Results were read on the LabChip 3000.
The LabChip 3000 was run using the job “LRRK2 IC50” with the following job settings:
Downstream voltage: −500 V
Upstream voltage: −2350 V
Post sample buffer sip time: 75 seconds
Post dye buffer sip time: 75 seconds
Final delay time: 200 seconds

T1 sequence (Q5S007 whole entry G2019S): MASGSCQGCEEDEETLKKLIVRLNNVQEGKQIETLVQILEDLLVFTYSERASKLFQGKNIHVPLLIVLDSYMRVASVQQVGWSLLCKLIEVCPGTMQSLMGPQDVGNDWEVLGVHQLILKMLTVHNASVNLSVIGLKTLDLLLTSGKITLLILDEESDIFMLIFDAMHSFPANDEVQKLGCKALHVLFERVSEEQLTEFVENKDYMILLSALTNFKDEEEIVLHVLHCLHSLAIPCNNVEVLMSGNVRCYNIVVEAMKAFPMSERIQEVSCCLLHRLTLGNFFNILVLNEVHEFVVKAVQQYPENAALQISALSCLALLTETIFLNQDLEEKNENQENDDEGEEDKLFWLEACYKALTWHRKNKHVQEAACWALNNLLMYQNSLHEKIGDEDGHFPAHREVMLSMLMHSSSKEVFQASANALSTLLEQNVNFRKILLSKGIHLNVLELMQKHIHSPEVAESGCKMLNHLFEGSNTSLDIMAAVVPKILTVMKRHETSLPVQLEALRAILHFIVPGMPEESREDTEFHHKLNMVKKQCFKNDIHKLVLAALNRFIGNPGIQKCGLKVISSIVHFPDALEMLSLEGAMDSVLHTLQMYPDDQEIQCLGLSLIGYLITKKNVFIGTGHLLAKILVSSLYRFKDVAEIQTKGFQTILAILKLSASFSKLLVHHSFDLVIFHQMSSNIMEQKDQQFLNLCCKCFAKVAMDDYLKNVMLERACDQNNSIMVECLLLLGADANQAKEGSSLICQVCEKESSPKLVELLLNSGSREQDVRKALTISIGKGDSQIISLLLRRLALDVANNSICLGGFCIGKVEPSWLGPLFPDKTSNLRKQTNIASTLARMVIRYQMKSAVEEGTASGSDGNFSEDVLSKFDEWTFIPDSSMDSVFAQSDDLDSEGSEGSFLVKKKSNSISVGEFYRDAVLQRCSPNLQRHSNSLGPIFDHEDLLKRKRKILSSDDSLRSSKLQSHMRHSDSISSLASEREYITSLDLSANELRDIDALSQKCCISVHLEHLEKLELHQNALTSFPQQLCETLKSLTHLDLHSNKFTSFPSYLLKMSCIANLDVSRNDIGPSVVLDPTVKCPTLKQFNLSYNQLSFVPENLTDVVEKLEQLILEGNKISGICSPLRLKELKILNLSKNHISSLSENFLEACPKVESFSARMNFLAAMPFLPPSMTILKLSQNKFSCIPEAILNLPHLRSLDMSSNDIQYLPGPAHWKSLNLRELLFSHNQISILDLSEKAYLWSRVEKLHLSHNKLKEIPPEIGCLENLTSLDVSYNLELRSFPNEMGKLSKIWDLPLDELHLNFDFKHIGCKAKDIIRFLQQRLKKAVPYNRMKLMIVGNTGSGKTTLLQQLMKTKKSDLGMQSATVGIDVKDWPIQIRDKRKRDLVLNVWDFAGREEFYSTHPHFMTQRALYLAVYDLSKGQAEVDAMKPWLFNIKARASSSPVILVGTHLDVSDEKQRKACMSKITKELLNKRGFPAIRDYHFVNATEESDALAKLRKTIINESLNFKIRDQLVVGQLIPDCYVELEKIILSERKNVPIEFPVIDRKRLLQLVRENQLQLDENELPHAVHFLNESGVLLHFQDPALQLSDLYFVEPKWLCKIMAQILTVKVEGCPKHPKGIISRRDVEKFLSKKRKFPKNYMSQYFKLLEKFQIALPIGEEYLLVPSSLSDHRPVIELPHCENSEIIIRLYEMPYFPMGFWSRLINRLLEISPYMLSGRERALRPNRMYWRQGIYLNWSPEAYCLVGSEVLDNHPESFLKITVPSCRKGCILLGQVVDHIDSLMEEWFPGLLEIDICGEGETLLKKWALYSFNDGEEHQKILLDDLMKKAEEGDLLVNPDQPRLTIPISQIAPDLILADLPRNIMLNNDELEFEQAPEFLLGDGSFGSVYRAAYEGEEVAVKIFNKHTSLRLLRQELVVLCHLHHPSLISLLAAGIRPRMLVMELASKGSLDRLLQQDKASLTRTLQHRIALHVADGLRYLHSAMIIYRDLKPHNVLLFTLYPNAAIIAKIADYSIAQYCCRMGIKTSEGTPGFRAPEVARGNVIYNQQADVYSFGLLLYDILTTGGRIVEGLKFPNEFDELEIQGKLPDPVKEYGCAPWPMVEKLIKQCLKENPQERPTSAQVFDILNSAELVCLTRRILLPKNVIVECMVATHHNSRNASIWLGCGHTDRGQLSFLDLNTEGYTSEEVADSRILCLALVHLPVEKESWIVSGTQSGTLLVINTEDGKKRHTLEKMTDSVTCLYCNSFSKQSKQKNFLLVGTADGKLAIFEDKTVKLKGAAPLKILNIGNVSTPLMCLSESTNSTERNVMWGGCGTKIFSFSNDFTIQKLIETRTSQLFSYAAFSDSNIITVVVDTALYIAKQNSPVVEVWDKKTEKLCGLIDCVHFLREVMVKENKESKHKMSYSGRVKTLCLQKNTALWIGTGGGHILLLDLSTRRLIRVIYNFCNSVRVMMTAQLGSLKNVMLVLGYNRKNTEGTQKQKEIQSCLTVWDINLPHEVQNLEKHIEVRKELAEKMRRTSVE

Compound | Ki [nM]
COc1cc(C(=O)N2CCOCC2)c(F)cc1Nc1ncc(C(F)(F)F)c(OC)n1 [Compound 50, [2-Fluoro-5-methoxy-4-(4-methoxy-5-trifluoromethyl-pyrimidin-2-ylamino)-phenyl]-morpholin-4-yl-methanone] | 33.3
CNc1nc(Nc2cc(F)c(C(=O)N3C[C@H]4CC[C@@H](C3)O4)cc2OC)ncc1C(F)(F)F [Compound 5, [2-Fluoro-5-methoxy-4-(4-methylamino-5-trifluoromethyl-pyrimidin-2-ylamino)-phenyl]-(1S,5R)-8-oxa-3-aza-bicyclo[3.2.1]oct-3-yl-methanone] | 1.78
CCNc1nc(Nc2cc(F)c(C(=O)N3C[C@H]4CC[C@@H](C3)O4)cc2OC)ncc1C(F)(F)F [Compound 6, [4-(4-Ethylamino-5-trifluoromethyl-pyrimidin-2-ylamino)-2-fluoro-5-methoxy-phenyl]-(1S,5R)-8-oxa-3-aza-bicyclo[3.2.1]oct-3-yl-methanone] | 0.501
CNc1nc(Nc2cc(F)c(C(=O)N3CCOCC3)cc2OCCF)ncc1C(F)(F)F [Compound 48, [2-Fluoro-5-(2-fluoro-ethoxy)-4-(4-methylamino-5-trifluoromethyl-pyrimidin-2-ylamino)-phenyl]-morpholin-4-yl-methanone] | 3.48
CNc1nc(Nc2cc(F)c(C(=O)NCC(C)(C)O)cc2OC)ncc1C(F)(F)F [Compound 35, 2-Fluoro-N-(2-hydroxy-2-methyl-propyl)-5-methoxy-4-(4-methylamino-5-trifluoromethyl-pyrimidin-2-ylamino)-benzamide] | 4.36
CNc1nc(Nc2cc(C)c(C(=O)N3CCOCC3)cc2OC)ncc1C(F)(F)F [Compound 3, [5-Methoxy-2-methyl-4-(4-methylamino-5-trifluoromethyl-pyrimidin-2-ylamino)-phenyl]-morpholin-4-yl-methanone] | 1.43
CNc1nc(Nc2cc(OC)c(C(=O)N3C[C@@H]4C[C@H]3CO4)cc2Cl)ncc1C(F)(F)F [Compound 15, [5-Chloro-2-methoxy-4-(4-methylamino-5-trifluoromethyl-pyrimidin-2-ylamino)-phenyl]-(1S,4S)-2-oxa-5-aza-bicyclo[2.2.1]hept-5-yl-methanone] | 2.55
CNc1nc(Nc2cc(OC)c(C(=O)N3CCC(F)(F)C3)cc2Cl)ncc1C(F)(F)F [Compound 24, [5-Chloro-2-methoxy-4-(4-methylamino-5-trifluoromethyl-pyrimidin-2-ylamino)-phenyl]-(3,3-difluoro-pyrrolidin-1-yl)-methanone] | 6.67
CCNc1nc(Nc2ccc(C(=O)NC(C)(C)C)cc2OC)ncc1C#N [Compound 46, N-tert-Butyl-4-(5-cyano-4-ethylamino-pyrimidin-2-ylamino)-3-methoxy-benzamide] | 3.03
CCNc1nc(Nc2cc(F)c(C(=O)NC)cc2OC)ncc1C(F)(F)F [Compound 37, 4-(4-Ethylamino-5-trifluoromethyl-pyrimidin-2-ylamino)-2-fluoro-5-methoxy-N-methyl-benzamide] | 1.31
CNc1nc(Nc2ccc(C(=O)N3CCOCC3)c(C)c2OC)ncc1C(F)(F)F [Compound 33, [3-Methoxy-2-methyl-4-(4-methylamino-5-trifluoromethyl-pyrimidin-2-ylamino)-phenyl]-morpholin-4-yl-methanone] | 114
CNc1nc(Nc2cc(Cl)c(C(=O)N3CCOCC3)cc2F)ncc1C(F)(F)F [Compound 53, [2-Chloro-5-fluoro-4-(4-methylamino-5-trifluoromethyl-pyrimidin-2-ylamino)-phenyl]-morpholin-4-yl-methanone] | 19.6

Next, values leading:

Ki [nM] | Compound
4.72 | CNc1nc(Nc2cc(OC)c(C(=O)N3CCCC3)cc2OCCF)ncc1C(F)(F)F [Compound 85, [5-(2-Fluoro-ethoxy)-2-methoxy-4-(4-methylamino-5-trifluoromethyl-pyrimidin-2-ylamino)-phenyl]-pyrrolidin-1-yl-methanone]
24.3 | CNc1nc(Nc2cc(F)c(C(=O)N3CCOCC3)c(F)c2OC)ncc1C(F)(F)F [Compound 63, [2,6-Difluoro-3-methoxy-4-(4-methylamino-5-trifluoromethyl-pyrimidin-2-ylamino)-phenyl]-morpholin-4-yl-methanone]
12.7 | CCNc1nc(Nc2cc(OC)c(C(=O)N3CC[C@H](F)C3)cc2Cl)ncc1C#N [Compound 117, 2-[2-Chloro-4-((S)-3-fluoro-pyrrolidine-1-carbonyl)-5-methoxy-phenylamino]-4-ethylamino-pyrimidine-5-carbonitrile]
1.05 | CCOc1cc(C(=O)N2CCOCC2)c(C)cc1Nc1ncc(C(F)(F)F)c(NC)n1 [Compound 100, [5-Ethoxy-2-methyl-4-(4-methylamino-5-trifluoromethyl-pyrimidin-2-ylamino)-phenyl]-morpholin-4-yl-methanone]
16.9 | CCOc1nc(Nc2cc(F)c(C(=O)N3CCOCC3)cc2OC)ncc1C(F)(F)F [Compound 64, [4-(4-Ethoxy-5-trifluoromethyl-pyrimidin-2-ylamino)-2-fluoro-5-methoxy-phenyl]-morpholin-4-yl-methanone]
1.01 | CNc1nc(Nc2cc(C)c(C(=O)N3CCOCC3)cc2OCF)ncc1C(F)(F)F [Compound 88, [5-Fluoromethoxy-2-methyl-4-(4-methylamino-5-trifluoromethyl-pyrimidin-2-ylamino)-phenyl]-morpholin-4-yl-methanone]
9.08 | CCNc1nc(Nc2cc(F)c(C(=O)N3CCOCC3)c(F)c2OC)ncc1C(F)(F)F [Compound 62, [4-(4-Ethylamino-5-trifluoromethyl-pyrimidin-2-ylamino)-2,6-difluoro-3-methoxy-phenyl]-morpholin-4-yl-methanone]
9.31 | CNc1nc(Nc2cc(F)c(C(=O)N3CCOCC3)cc2Cl)ncc1C(F)(F)F [Compound 69, [5-Chloro-2-fluoro-4-(4-methylamino-5-trifluoromethyl-pyrimidin-2-ylamino)-phenyl]-morpholin-4-yl-methanone]
1.74 | CNc1nc(Nc2ccc(C(=O)N3CCOC(C)(C)C3)cc2OC)ncc1C(F)(F)F [Compound 83, (2,2-Dimethyl-morpholin-4-yl)-[3-methoxy-4-(4-methylamino-5-trifluoromethyl-pyrimidin-2-ylamino)-phenyl]-methanone]
1.46 | CCNc1nc(Nc2cc(OCF)c(C(=O)N3CCOCC3)cc2Cl)ncc1C(F)(F)F [Compound 72, [5-Chloro-4-(4-ethylamino-5-trifluoromethyl-pyrimidin-2-ylamino)-2-fluoromethoxy-phenyl]-morpholin-4-yl-methanone]
5.63 | CNc1nc(Nc2cc(OC)c(C(=O)N3CCOCC3)cc2C)ncc1C(F)(F)F [Compound 58, [2-Methoxy-5-methyl-4-(4-methylamino-5-trifluoromethyl-pyrimidin-2-ylamino)-phenyl]-morpholin-4-yl-methanone]
1.19 | CNc1nc(Nc2cc(C)c(C(=O)NCC(C)(C)O)cc2OC)ncc1C(F)(F)F [Compound 116, N-(2-Hydroxy-2-methyl-propyl)-5-methoxy-2-methyl-4-(4-methylamino-5-trifluoromethyl-pyrimidin-2-ylamino)-benzamide]
3.64 | CNc1nc(Nc2cc(F)c(C(=O)N3CCOCC3)cc2C)ncc1C(F)(F)F [Compound 92, [2-Fluoro-5-methyl-4-(4-methylamino-5-trifluoromethyl-pyrimidin-2-ylamino)-phenyl]-morpholin-4-yl-methanone]

Same assay, conditions: Table 6 compounds (formula II/III, fused ring)

Ki [nM] | Compound
3.17 | [5-Chloro-2-hydroxy-4-(4-methylamino-5-trifluoromethyl-pyrimidin-2-ylamino)-phenyl]-morpholin-4-yl-methanone [Compound 10]
1.08 | CNc1nc(Nc2cc(C)c(C(=O)N3CCOCC3)cc2OC)ncc1C(F)(F)F [Compound 3, [5-Methoxy-2-methyl-4-(4-methylamino-5-trifluoromethyl-pyrimidin-2-ylamino)-phenyl]-morpholin-4-yl-methanone]
